Measured values: US20200315950A1, “COMPOSITION FOR MODULATING THE GENES RESPONSIBLE FOR GENERAL SKIN FUNCTIONS, METHOD FOR MODULATING THE EXPRESSION OF GENES RESPONSIBLE FOR GENERAL SKIN FUNCTIONS, AND USE OF A PLANT EXTRACT” (Natura Cosmeticos S.A., priority 2016, published 2020)
“And” between values parts separate entries of the source, which are not always exact repeats. Equal entries are not always repeated.

System: 180 genes in skin explants
Assay: Large scale gene expression profile assay (PCR array) in skin explants
Assay type: cell-based, human
Conditions: eyelid skin explants, 2 mg/cm^2 topical, 24 hours, threshold 30% increase or reduction
Experimental: A large scale gene expression profile assay (by PCR array) was performed of 180 genes in skin explants obtained subsequent to blepharoplasty and subjected to individual treatments with the present invention.
Initially, skin explants were obtained from the eyelids of females between 45 and 55 years of age, three (3) different donors of each age. The explants were split into halves and immediately inserted, in triplicate from each donor, into a culture medium and kept for 24 hours (half 1) and 72 hours (half 2) in a wet environment, at 37° C., 5% CO2. […]
Half (1) was collected and subjected to total RNA extraction. The quality of the extracted RNA was qualitatively (Bioanalyzer microcapillary electrophoresis) and quantitatively (Nanodrop spectrophotometer) assessed. […] The ΔCt values for the GAPDH (glyceraldehyde-3-phosphate dehydrogenase) reference gene and target gene were calculated by subtracting from each other the values for the experimental groups. […] Lastly, a relative quantification of the target genes was determined by using the equation: RQ=2−ΔΔCt. […] The statistical significance was assessed by using the t test followed by the Benjamini-Hochberg method (FDR—false discovery rate), which p-value<0.05 was considered significant. […]

Compound	number of genes modulated as compared to the untreated control
C/C=C/C=C\CC/C=C/C(=O)NCC(C)C [spilanthol sample, spilanthol]	163 genes
hyaluronic acid [Hyaluronic Acid sample]	162 genes and 146 genes
